The numbers were not newly measured in article PMC4424193 (European journal of drug metabolism and pharmacokinetics, 2014), which cites them from elsewhere.

What is called Cmax is the peak of the concentration-time curve. The term Tmax denotes the time at which the peak concentration occurs. The t½ is the time needed for the level to fall by half in the phase considered.

Read-outs that look alike come from different tables or passages of the source.

The conditions of data set [1]: rats, single intragastric 50 mg/kg in 2% starch suspension; ref Kaverina (1983).
Data set [2] addresses FAK. To be noted: binding studies; ref Kurenova et al. 2013.
For data set [3] the following is noted: ref Dirikolu (2009); for Cmax: horse serum.
For data set [4] the following is noted: man, single oral 50 mg dose, 24 hr urine collections; ref Chung (1994).
The conditions of data set [5]: humans, ref Yeh et al. 1986; for Cmax: at 0.5 hrs post-dose.
For data set [6] the following is noted: rat, after 24 hrs; ref Yeh 1990.
[7] abbreviates: CD1 mice, 44.6 mg/kg IP C4 free base, ref Thudium 2011.

Take `CN(C)CCN(Cc1ccc(Cl)cc1)c1ccccn1` [C4, N-[(4-chlorophenyl)-methyl]-N-[2-(dimethylamino)-ethyl]-pyridin-2-amine]: under setting [7], the “plasma Cmax (mean)” value is 820 ng/mL and the “time of peak plasma concentration” value was 0.67 h. In addition, the T½ (mice, 44.6 mg/kg free base IV dose, ref Thudium (2011)) was 0.83 ± 0.34 h. Moreover, the 24 hr concentration (mice, 44.6 mg/kg free base, ref Thudium (2011)) was 0 µg/mL. The Bioavailability (mice, oral vs IP routes of administration, previously determined) is recorded as 15.5%. The maximum concentration (Cmax) (mouse IV, ref Thudium (2011)) is 820 ng/mL. For the same molecule, in data set [1], the maximum concentration (Cmax) was 370 ng/mL, the T½ is 14.9 h and the “serum concentration at 24 hrs (mean)” value was 160 ± 10 ng/mL. For the same molecule, the “C4 to FAK dissociation constant (Kd)” value in data set [2] is 0.165 µg/mL.

Turning to `COc1ccc(CN(CCN(C)C)c2ccccn2)cc1` [Pyrilamine, pyrilamine], the Cmax in data set [3] (IV 300 mg/horse, at 5 minutes) is 280 ng/mL; in data set [3] (oral 300 mg/horse), 36.6 ng/mL. Besides, in data set [3] (horse, IV 300 mg/horse), the “half-life (t½)” value is 1.67 h. Moreover, in data set [3] (horse, either route of administration (IV, oral)), the “detection in serum at 24 hrs” value is “not detected”. In addition, in data set [3] (horse, oral 300 mg/horse), the Tmax was 0.44 h. Further, the “parent compound in urine” value in data set [4] was “no parent compound was observed in the urine”.

For the molecule `CN(C)CCN(Cc1ccccc1)c1ccccn1` [tripelennamine], in data set [5] (50 mg intramuscular), the Cmax was 105 ng/mL and the t½ is 2.9 ± 0.25 h. Also, in data set [5] (100 mg intramuscular), the peak concentration (Cmax) was 194 ng/mL and the t½ was 4.4 ± 1.3 h. In data set [6], the “dose recovered unchanged in urine” value was 2-3%.
